In patent US7553856B2, “Crystalline form of omeprazole” (Lek Pharmaceuticals d.d., priority 2001, dated 2009):

Tests used:
[1] = compared to previously-known omeprazole form B; cited from earlier work
[2] = Stability testing of omeprazole samples under stress/accelerated aging, evaluated by absorbance (Ph Eur); type: physicochemical; conditions: omeprazole form C obtained by the disclosed process; no numerical data printed
Protocol: The stability of omeprazole samples was determined by a standard procedure for testing the substances in pharmaceutical industry (CPMP/ICH/2736/99). […] Determination of absorbance, measured according to Ph Eur method (PhEur 3 Suppl 2000), is used as the criterion for evaluation of the sample quality during stability testing.

Question: Which results are given for `COc1ccc2[nH]c([S+]([O-])Cc3ncc(C)c(OC)c3C)nc2c1` (stereo not shown) [omeprazole form A, 5-methoxy-2-[[(4-methoxy-3,5-dimethyl-2-pyridinyl)methyl]sulfinyl]-1H-benzimidazole]?
Answer: hygroscopicity [1]: better; photostability [1]: better; thermodynamic stability [1]: better

Question: With `COc1ccc2[nH]c([S+]([O-])Cc3ncc(C)c(OC)c3C)nc2c1` (stereo not shown) [omeprazole form C, 5-methoxy-2-[[(4-methoxy-3,5-dimethyl-2-pyridinyl)methyl]sulfinyl]-1H-benzimidazole] as the compound, how does the “stability according to the standard protocol for characterization of stability of a pharmaceutical active substance” value [2] read?
Answer: The value was “stable according to the standard protocol”.
